These results are taken from paper PMC3813382 (The Journal of General Physiology, 2013).

Molecules are shown by their SMILES. Substitutions are numbered along the chain they refer to.

One experiment addresses T1, M262A Slo2.1 channels (Homo sapiens, UniProt Q6UVM3, M262A).
T1 sequence (Q6UVM3 1-1135 M262A): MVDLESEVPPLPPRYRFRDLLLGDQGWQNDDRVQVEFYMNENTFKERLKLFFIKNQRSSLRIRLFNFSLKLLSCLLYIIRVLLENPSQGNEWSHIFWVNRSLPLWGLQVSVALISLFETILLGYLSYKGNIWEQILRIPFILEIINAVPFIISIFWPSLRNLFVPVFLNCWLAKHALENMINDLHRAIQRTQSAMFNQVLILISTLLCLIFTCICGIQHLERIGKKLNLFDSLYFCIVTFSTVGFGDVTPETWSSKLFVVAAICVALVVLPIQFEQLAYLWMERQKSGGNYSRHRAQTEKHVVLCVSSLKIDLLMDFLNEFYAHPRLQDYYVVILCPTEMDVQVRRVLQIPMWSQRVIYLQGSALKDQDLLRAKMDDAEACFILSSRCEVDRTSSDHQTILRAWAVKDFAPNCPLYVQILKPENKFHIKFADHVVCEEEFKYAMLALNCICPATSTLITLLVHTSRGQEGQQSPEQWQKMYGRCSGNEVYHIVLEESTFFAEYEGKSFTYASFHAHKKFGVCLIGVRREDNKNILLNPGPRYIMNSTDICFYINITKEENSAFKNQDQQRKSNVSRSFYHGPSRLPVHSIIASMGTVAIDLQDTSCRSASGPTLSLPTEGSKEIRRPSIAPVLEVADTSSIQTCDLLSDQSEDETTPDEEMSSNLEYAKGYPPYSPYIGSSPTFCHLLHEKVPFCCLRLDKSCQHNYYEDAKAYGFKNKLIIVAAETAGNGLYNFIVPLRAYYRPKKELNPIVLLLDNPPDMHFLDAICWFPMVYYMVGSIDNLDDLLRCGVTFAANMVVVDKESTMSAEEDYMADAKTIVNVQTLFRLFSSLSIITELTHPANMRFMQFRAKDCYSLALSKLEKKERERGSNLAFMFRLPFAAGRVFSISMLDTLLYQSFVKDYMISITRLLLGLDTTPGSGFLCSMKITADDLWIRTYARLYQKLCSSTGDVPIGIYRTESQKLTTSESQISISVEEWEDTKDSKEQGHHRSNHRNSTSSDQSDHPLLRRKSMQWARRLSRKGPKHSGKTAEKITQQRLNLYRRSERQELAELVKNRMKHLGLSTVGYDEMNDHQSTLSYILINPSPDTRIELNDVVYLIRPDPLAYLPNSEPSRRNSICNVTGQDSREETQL
In words: Activation of ISlo2.1 by NFA, two-electrode voltage clamp in oocytes. The format is cell-based.

The next experiment has as its target T2, WT Slo2.1 channels (Homo sapiens, UniProt Q6UVM3).
T2 sequence (Q6UVM3 1-1135): T1 sequence (Q6UVM3 1-1135 M262A) with A262M
Described as above. It is filed as cell-based.

Usually EC50 stands for the concentration needed to bring the measured effect to its halfway point. `O=C(O)c1cccnc1Nc1cccc(C(F)(F)F)c1` [NFA, niflumic acid]: the EC50 at M262A Slo2.1 channels was found to be 660 ± 130 µM; on WT Slo2.1 channels it was 2100 ± 100 µM. In addition, the “Hill coefficient nH of NFA activation” value at M262A Slo2.1 channels (M262A) came to 1.4 ± 0.06. On WT Slo2.1 channels (6 mM NFA, oocytes injected with ≤1 ng WT cRNA), the “time to peak response of ISlo2.1 during repetitive pulsing” value is given as approximately 3 min.
